Source: patent US11707062B2, “Formulation of stearyl alcohol” (PRO FARM GROUP, INC., priority 2017, dated 2023)

Assays:
[1] = Percent light transmittance by spectrophotometer; format: physicochemical; details: depending on the concentration of material applied
Procedure: FIG. 8 denotes percent light transmission (% T) of wavelengths between 200 and 750 nm. UV-B radiation occurs at 280-315 nm (dashed green lines), while photosynthetically active radiation occurs between 400-700 nm (solid green lines). The rows of symbols correspond to 12 mL/L concentrations of formulated stearyl alcohol (triangles) and two alternate formulations (squares, diamonds). Water (circles) results in 100% light transmittance. To test the hypothesis that stearyl alcohol reduces transmission of light radiation, particularly within the UV-B spectrum, percent (%) transmittance were measured using a spectrophotometer. stearyl alcohol was diluted to 1/100th of the field application rate (6 mL/L active ingredient) for both visible and non-visible UV light spectra. Visible light spectral analysis was conducted using a 96 well plate while UV transparent cuvettes and 96 well plates were utilized to analyze the percent light transmittance at the UV spectrum. For all spectrophotometer light transmittance screenings, both a water reference and plate blank were used to calibrate the ratio of light energy transmitted through the formulation samples to the energy transmitted through the reference blank. Treatments were replicated three times.

[2] = tested on: soybean leaves; assay: Leaf temperature and gas exchange of attached soybean leaves in a field; format: in vivo; details: 1% v/v DI water solution on upper leaf surface; SE±0.31; P-value<0.02, paired t-test
Excerpt: FIG. 9 denotes a comparison of the temperature depression caused by stearyl alcohol application to leaves. Points represent temperatures measured at 9 time intervals on four pairs of leaves. FIG. 10 denotes a comparison of photosynthetic capacity of treated leaves, control leaves and leaves prior to stearyl alcohol application. Photosynthetic capacity variation is interpreted as a treatment having higher/lower photosynthesis values than the control for the same stomatal conductance To test the hypothesis that stearyl alcohol reduces internal leaf temperatures while not adversely affecting photosynthesis, stearyl alcohol was applied to eight attached soybean leaves selected from plants growing in a field. The leaves were spaced in blocks so that two leaves could be compared to each other as control/treatment pairs. The leaves were placed in fishing line, wood and metal holders that restrained the leaves in an exposed and horizontal orientation (to prevent leaf orientation changes affecting the leaf energy balance and temperature). Leaf temperature was measured with an IR thermometer three times before and six times after application of a 1% v/v DI water solution of stearyl alcohol to the upper leaf surface, applied using a household spray bottle. Full coverage of the leaf surface was achieved and excess water shaken off. Leaves were dry within half an hour. […]

[3] = tested on: tomato plants; assay: Controlled lab bioassay of transpiration under moderate heat stress; format: in vivo
Procedure: FIG. 11 denotes mean transpiration rates of tomato plants treated with stearyl alcohol at 72 hours after application. Bars represent standard errors. A controlled lab bioassay was run to evaluate the ability of stearyl alcohol to decrease transpiration of tomato plants under moderate heat stress. stearyl alcohol was applied at a 6 mL/L concentration in water to five tomato plants at the 6-8 leaf stage growing in 8.9 cm square pots, using a research track sprayer. Sombrero, a commercially available calcium carbonate plant sunscreen product, was applied as a positive control and deionized water as a negative control. The application rate was equivalent to 150 liters of diluted product per acre. After sealing pots with plastic bags to prevent water loss through evaporation from the soil surface and measuring total pot and plant weight, the plants were placed in randomized complete blocks in a growth chamber set to 26° C. with 50% relative humidity, x 3000 μW/cm2 illumination for 14 hours per day. Sealed pots and plants were again weighed at 24, 48 and 72 hours after application. Differences in weight were attributed to water loss through transpiration. Plant mass was then plotted against time, and the slope of the linear regression was taken to be the rate of water loss in Average surface area of the leaves (cm2) was calculated using a digital leaf area scanner. Mean transpiration rate was then calculated as: Rate=Water Loss Rate (μg/sec)/Total Leaf Area (cm2).

[4] = tested on: wine (Merlot) and table (Princess) grape varieties; assay: Solar radiation damage in Chilean vineyards; format: in vivo; details: 3, 6 or 9 mL/L in 100 L of water; at harvest
Excerpt: FIG. 13 denotes number of sun-damaged bunches of Merlot grape. Bars represent standard error for total number of damaged bunches. Letters are the same for each category of damage and represent significant differences according to a Tukey test for separation of means with α=0.05.
FIG. 14 denotes number of sun-damaged bunches of Princesa table grape. Bars represent standard error for number of damaged bunches. Letters represent significant differences in number of damaged bunches according to a Tukey test for separation of means with α=0.05.
To evaluate for protection from excess or harmful solar radiation, stearyl alcohol was applied by Duarte and Associates in established Chilean vineyards planted with wine (Merlot) and table (Princess) grape varieties. Plants were treated in 2014 with 3, 6 or 9 mL/L in 100 L of water when berries reached 11 mm in diameter and at two week intervals over the subsequent six weeks. Five contiguous vines were sprayed per treatment; treatments were replicated 3 times and arranged in a random complete block design. At harvest, bunches were counted per plant, yields assessed, sugar content measured and solar radiation damage rated.

[5] = tested on: almond; assay: Almond orchard field trial, yield

SMILES: CCCCCCCCCCCCCCCCCCO [stearyl alcohol]
- reductions of light in the photosynthetically active radiation spectrum ([1]; 400-700 nm): 10-15%
- reductions of transmitted UV-B radiation ([1]; UV-B 280-315 nm): 20-50%
- apparent depression in leaf temperatures after application [2]: 1.5 degree C.
- mean transpiration rate ([3]; 6 mL/L stearyl alcohol, 26° C., 50% relative humidity, up to 72 hours after application, untreated control 6.68): 5.33 μg/cm2/sec
- average reductions in leaf temperature ([3]; tomato plants, growth chamber 26° C.): 1.50 (±0.35) ° C.
- reductions in transpiration ([3]; vs untreated control): about 20%
- damaged bunches, table grape (Princess) [4]: fewer damaged bunches
- damaged bunches, wine grape (Merlot) [4]: fewer damaged bunches
- crop safety in pre-harvest field assessments ([5]; almond orchard, six assessment dates): confirmed the crop safety
- almond yields ([5]; stearyl alcohol 6 ml/L three applications, Surround 50 lbs per acre, untreated 2.8 tons/A): 3.2 tons/A
